# Tests used:
# Caspase-3 = assay: Human Caspase-3 (active) ELISA on HT-29 cell lysates; format: cell-based; conditions: HT-29, 1 µM, 24 h
# Protocol: (§1) To check the effect of compound 6 on the level of p-53 and caspase-3 protein, another test was performed on HT-29 cells, taking doxorubicin as the reference drug.
# (§2) To assess the level of caspase-3 and p53 protein, HT-29 cell lysates were used after 24 h of incubation with compounds 5 and 6. The supernatant was collected in the prepared and labeled tubes, the cells from the wells were scraped, and the wells were washed with cold PBS, which was also collected. The tubes were then centrifuged, the supernatant was removed, and the cell pellet was lysed in a cell extraction vessel for 30 min on ice, with […] every 10 min. The lysate was transferred to centrifuge tubes and centrifuged at 13,000 rpm for 10 min at 4 °C. The supernatant was transferred to clean tubes in a microcentrifuge.
# (§3) The following kits were used: Human Caspase-3 (active) ELISA Kit (KHO1091) and p53 Human ELISA Kit (BMS256), used following the manufacturer’s instructions. ELISA kits were purchased from Thermo Fisher Scientific (Waltham, MA, USA). The absorbance was measured using a Multiskan GO microplate reader (Thermo Fisher Scientific, Waltham, MA, USA) at wavelengths specific to each kit, as recommended by the manufacturer.
# interleukin-1β = assay: IL-1β ELISA in HT-29 supernatant; format: cell-based, human; conditions: HT-29, 1 µM
# From the text: (§4) The different effects of the anticancer compound on IL-6 and IL-1β can be explained by the different regulatory mechanisms of these cytokines and the distinct signaling pathways targeted by the therapy. The reduction in IL-6 levels may be due to the direct action of the compound on pathways promoting this cytokine or its ability to inhibit inflammatory processes specific to IL-6. In contrast, the increase in IL-1β levels might result from the inflammatory response to cellular stress or apoptosis induced by the therapy, leading to activation of the immune system and increased production of IL-1β.
# (§5) Cytokine levels (IL-1β and IL-6) in the supernatant were measured for HT-29 and EPG cells treated with compounds 5 and 6, according to the instructions provided by the manufacturer of the ELISA kits were purchased from Abcam (Cambridge, UK). The absorbance was measured using a Multiskan GO microplate reader (Thermo Fisher Scientific, Waltham, MA, USA) at wavelengths specific to each kit, as recommended by the manufacturer.
# interleukin-6 = assay: IL-6 ELISA in HT-29 supernatant; format: cell-based, human; conditions: HT-29, 1 µM
# From the text: as §4, §5
# p53 = p53 Human ELISA on HT-29 cell lysates; format: cell-based; conditions: HT-29, 1 µM, 24 h
# Protocol: as §1, §2, §3
smiles,measurement,setting,value
Cc1ccc(N2CCN(Cn3nc(CNC(=O)c4c(C)cc(C)nc4S)n(-c4ccccc4)c3=S)CC2)cc1 [Compound 6],Caspase-3 Conc. ± SD,Caspase-3,0.48 ± 0.07 ng/mL
same,IL-1β Conc. ± SD,interleukin-1β,0.51 ± 0.11 pg/mL
same,IL-6 Conc. ± SD,interleukin-6,7.80 ± 0.30 pg/mL
same,p53 Conc. ± SD,p53,3.50 ± 0.07 U/mL

# — publication PMC12294558, “New 1,2,4-Triazole Derivatives with a N-Mannich Base Structure Based on a 4,6-Dimethylpyridine Scaffold as Anticancer Agents: Design, Synthesis, Biological Evaluation, and Molecular Modeling” (International Journal of Molecular Sciences, 2025)
